Drawing on PubChem BioAssay (NCI), this text covers TGI for 11 molecules.

SMILES strings stand for the structures.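 48-hour exposure; five concentrations; linearly interpolated endpoints. TGI denotes the concentration required for complete inhibition of growth.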

The test system of the first experiment is HL-60(TB) leukemia. In words: inhibition of tumour cell growth, NCI panel, 48 h.
Regarding `Cc1ccc(-c2c3c(n(C4OC(CO)C(O)C(O)C4O)c(=S)c2C#N)CC(C)(C)CC3=O)cc1` (stereo not drawn), the TGI was > 100 µM.
On the same count and under the same terms, with `COc1ccc(C(OCC2OC(n3cc(C)c(=O)[nH]c3=O)CC2n2cc(Cn3cc(Br)c(=O)[nH]c3=O)nn2)(c2ccccc2)c2ccccc2)cc1` (stereo not drawn) the figure was 5.09 µM.
`CC(NNC(=O)CC(=O)N(C(=O)c1ccccc1)c1ccc(Cl)cc1)c1cc2ccccc2oc1=O` (stereo not drawn): the TGI was > 10 µM.
`CC(C)(C)c1cc(C(=O)/C=C/C=C/c2ccccc2)cc(C(C)(C)C)c1O` had a TGI of 8.88 µM.
Still for that read-out and setting: the result for `O=[N+]([O-])c1ccc(S(=O)(=O)N=Ic2ccccc2)cc1` reads > 100 µM; that for `O=C(O)CCN(CCC(=O)O)c1ccc(/C=C2\SC(=S)NC2=O)cc1`, > 100 µM.
In turn, `O=C(NS(=O)(=O)OCC(Cl)(Cl)Cl)SCCC(F)(F)C(F)(F)C(F)(F)C(F)(F)C(F)(F)C(F)(F)F` showed a TGI of 51.2 µM.
The same measure, in the same setting: with `S=c1[nH]n2c(COc3cccc(OCc4nnc5sc(=S)[nH]n45)c3)nnc2s1` the figure was 72.1 µM.
For the molecule `Cc1cn(CCCCCOC(=O)NC(CCCN=C(N)N)C(=O)O)c(=O)[nH]c1=O` (stereo not drawn), the TGI is > 100 µM.
The molecule `COc1ccc(C(=O)/C=C/c2ccncc2)cc1OC` yielded a TGI of 5.02 µM.
Still for that read-out and setting: with `CC(C)(C)NC(=O)N1N=C(c2ccccc2)C1c1ccccc1` (stereo not drawn) the figure was > 100 µM.

The subject of another experiment is OVCAR-4 ovarian. Put plainly: inhibition of tumour cell growth, NCI panel, 48 h.
For the molecule `Cc1ccc(-c2c3c(n(C4OC(CO)C(O)C(O)C4O)c(=S)c2C#N)CC(C)(C)CC3=O)cc1` (stereo not drawn), the TGI was > 100 µM.
On the same count and under the same terms, with `COc1ccc(C(OCC2OC(n3cc(C)c(=O)[nH]c3=O)CC2n2cc(Cn3cc(Br)c(=O)[nH]c3=O)nn2)(c2ccccc2)c2ccccc2)cc1` (stereo not drawn) the figure was > 100 µM; with `CC(NNC(=O)CC(=O)N(C(=O)c1ccccc1)c1ccc(Cl)cc1)c1cc2ccccc2oc1=O` (stereo not drawn), > 10 µM; with `CC(C)(C)c1cc(C(=O)/C=C/C=C/c2ccccc2)cc(C(C)(C)C)c1O`, > 100 µM.
For `O=[N+]([O-])c1ccc(S(=O)(=O)N=Ic2ccccc2)cc1`, the TGI is > 100 µM.
The same measure, in the same setting: the result for `O=C(O)CCN(CCC(=O)O)c1ccc(/C=C2\SC(=S)NC2=O)cc1` reads > 100 µM; that for `O=C(NS(=O)(=O)OCC(Cl)(Cl)Cl)SCCC(F)(F)C(F)(F)C(F)(F)C(F)(F)C(F)(F)C(F)(F)F`, 31.8 µM.
On the same count and under the same terms, with `S=c1[nH]n2c(COc3cccc(OCc4nnc5sc(=S)[nH]n45)c3)nnc2s1` the figure was > 100 µM; with `Cc1cn(CCCCCOC(=O)NC(CCCN=C(N)N)C(=O)O)c(=O)[nH]c1=O` (stereo not drawn), > 100 µM.
The same measure, in the same setting: the result for `COc1ccc(C(=O)/C=C/c2ccncc2)cc1OC` reads 23.2 µM; that for `CC(C)(C)NC(=O)N1N=C(c2ccccc2)C1c1ccccc1` (stereo not drawn), > 100 µM.

Another experiment concerns A549 NSCLC. In words: inhibition of tumour cell growth, NCI panel, 48 h.
For the molecule `Cc1ccc(-c2c3c(n(C4OC(CO)C(O)C(O)C4O)c(=S)c2C#N)CC(C)(C)CC3=O)cc1` (stereo not drawn), the TGI is > 100 µM.
On to `COc1ccc(C(OCC2OC(n3cc(C)c(=O)[nH]c3=O)CC2n2cc(Cn3cc(Br)c(=O)[nH]c3=O)nn2)(c2ccccc2)c2ccccc2)cc1` (stereo not drawn), for which the TGI is > 100 µM.
On the same count and under the same terms, the result for `CC(NNC(=O)CC(=O)N(C(=O)c1ccccc1)c1ccc(Cl)cc1)c1cc2ccccc2oc1=O` (stereo not drawn) reads > 10 µM; that for `CC(C)(C)c1cc(C(=O)/C=C/C=C/c2ccccc2)cc(C(C)(C)C)c1O`, 47.3 µM; that for `O=[N+]([O-])c1ccc(S(=O)(=O)N=Ic2ccccc2)cc1`, > 100 µM.
For the molecule `O=C(O)CCN(CCC(=O)O)c1ccc(/C=C2\SC(=S)NC2=O)cc1`, the TGI is > 100 µM.
Regarding `O=C(NS(=O)(=O)OCC(Cl)(Cl)Cl)SCCC(F)(F)C(F)(F)C(F)(F)C(F)(F)C(F)(F)C(F)(F)F`, the TGI was found to be 94.6 µM.
Regarding `S=c1[nH]n2c(COc3cccc(OCc4nnc5sc(=S)[nH]n45)c3)nnc2s1`, the TGI is > 100 µM.
On the same count and under the same terms, with `Cc1cn(CCCCCOC(=O)NC(CCCN=C(N)N)C(=O)O)c(=O)[nH]c1=O` (stereo not drawn) the figure was > 100 µM; with `COc1ccc(C(=O)/C=C/c2ccncc2)cc1OC`, 29.3 µM.
As for `CC(C)(C)NC(=O)N1N=C(c2ccccc2)C1c1ccccc1` (stereo not drawn), the TGI is > 100 µM.

The next experiment has as its system SNB-75 CNS. Put plainly: inhibition of tumour cell growth, NCI panel, 48 h.
On to `Cc1ccc(-c2c3c(n(C4OC(CO)C(O)C(O)C4O)c(=S)c2C#N)CC(C)(C)CC3=O)cc1` (stereo not drawn), for which the TGI was > 100 µM.
Regarding `COc1ccc(C(OCC2OC(n3cc(C)c(=O)[nH]c3=O)CC2n2cc(Cn3cc(Br)c(=O)[nH]c3=O)nn2)(c2ccccc2)c2ccccc2)cc1` (stereo not drawn), the TGI is > 100 µM.
On the same count and under the same terms, the result for `CC(NNC(=O)CC(=O)N(C(=O)c1ccccc1)c1ccc(Cl)cc1)c1cc2ccccc2oc1=O` (stereo not drawn) reads > 10 µM; that for `CC(C)(C)c1cc(C(=O)/C=C/C=C/c2ccccc2)cc(C(C)(C)C)c1O`, 67.2 µM; that for `O=[N+]([O-])c1ccc(S(=O)(=O)N=Ic2ccccc2)cc1`, > 100 µM.
`O=C(O)CCN(CCC(=O)O)c1ccc(/C=C2\SC(=S)NC2=O)cc1`: the TGI was > 100 µM.
In turn, `O=C(NS(=O)(=O)OCC(Cl)(Cl)Cl)SCCC(F)(F)C(F)(F)C(F)(F)C(F)(F)C(F)(F)C(F)(F)F` displayed a TGI of 64.6 µM.
With `S=c1[nH]n2c(COc3cccc(OCc4nnc5sc(=S)[nH]n45)c3)nnc2s1`, the TGI is > 100 µM.
Consider `Cc1cn(CCCCCOC(=O)NC(CCCN=C(N)N)C(=O)O)c(=O)[nH]c1=O` (stereo not drawn), for which the TGI is > 100 µM.
`COc1ccc(C(=O)/C=C/c2ccncc2)cc1OC` had a TGI of 26.3 µM.
Turning to `CC(C)(C)NC(=O)N1N=C(c2ccccc2)C1c1ccccc1` (stereo not drawn), the TGI is > 100 µM.

The next experiment relates to M14 melanoma. In words: inhibition of tumour cell growth, NCI panel, 48 h.
In the case of `Cc1ccc(-c2c3c(n(C4OC(CO)C(O)C(O)C4O)c(=S)c2C#N)CC(C)(C)CC3=O)cc1` (stereo not drawn), the TGI was > 100 µM.
Same read-out and setting: the result for `COc1ccc(C(OCC2OC(n3cc(C)c(=O)[nH]c3=O)CC2n2cc(Cn3cc(Br)c(=O)[nH]c3=O)nn2)(c2ccccc2)c2ccccc2)cc1` (stereo not drawn) reads > 100 µM; that for `CC(NNC(=O)CC(=O)N(C(=O)c1ccccc1)c1ccc(Cl)cc1)c1cc2ccccc2oc1=O` (stereo not drawn), > 10 µM.
On to `CC(C)(C)c1cc(C(=O)/C=C/C=C/c2ccccc2)cc(C(C)(C)C)c1O`, for which the TGI is 41.4 µM.
On the same count and under the same terms, with `O=[N+]([O-])c1ccc(S(=O)(=O)N=Ic2ccccc2)cc1` the figure was > 100 µM.
As to `O=C(O)CCN(CCC(=O)O)c1ccc(/C=C2\SC(=S)NC2=O)cc1`, the TGI was > 100 µM.
On the same count and under the same terms, with `O=C(NS(=O)(=O)OCC(Cl)(Cl)Cl)SCCC(F)(F)C(F)(F)C(F)(F)C(F)(F)C(F)(F)C(F)(F)F` the figure was 48.6 µM; with `S=c1[nH]n2c(COc3cccc(OCc4nnc5sc(=S)[nH]n45)c3)nnc2s1`, > 100 µM.
Same read-out and setting: with `Cc1cn(CCCCCOC(=O)NC(CCCN=C(N)N)C(=O)O)c(=O)[nH]c1=O` (stereo not drawn) the figure was > 100 µM.
